Measured values taken from a melting point compilation (Tetko et al.).

SMILES | melting point [°C]
CCOc1cc(Cl)ccc1C#N | 81 to 83
Cc1ccc(C(=O)CCl)s1 | 45 to 47
Cn1c(=O)oc2cc(C(=O)CCl)ccc21 | 159 to 161
NC(=O)c1ccncc1F | 126 to 128
CCNS(=O)(=O)c1ccc(C)c(C(=O)O)c1 | 181 to 183
CCCc1c(C(=O)O)[nH]c(C)c1C(C)=O | 214 to 216
O=C(O)c1cc2c([nH]1)CCC2 | 109 to 111
COC(C)c1nc(CC(=O)O)cs1 (stereo unspecified) | 154 to 156
CC(N)c1ccc(S(C)(=O)=O)c(F)c1 (stereo unspecified) | 60 to 62
CC(Oc1ccc(Cl)c(Cl)c1)C(=O)O (stereo unspecified) | 125 to 127
O=C(c1cccc(Cl)c1)N1CCNCC1 | 96 to 98
CCOC(=O)c1cnn2c(O)cc(CCl)nc12 | 215 to 217
O=C(CCl)NC1CCC(C(F)(F)F)CC1 (stereo unspecified) | 65 to 67
CS(=O)(=O)Nc1cc(C(=O)O)ccc1Cl | 275 to 277
O=C(O)CCOc1ccc([N+](=O)[O-])cc1 | 116 to 118
NC(=O)NCCCCCC(=O)O | 175 to 177
CCCc1[nH]ncc1C(=O)O | 207 to 209

Now from value to molecule:

melting point [°C] | SMILES
180 to 182 | COc1ccc(Br)cc1Cc1nnn[nH]1
174 to 176 | Oc1ccc(-c2ccccc2)nc1
147 to 149 | CNC(=O)c1ccc(N)cc1Cl
215 to 217 | O=C(CCl)N1CCN(S(=O)(=O)c2ccccc2Cl)CC1
157 to 159 | O=C(CCl)NC(=O)c1ccccc1
162 to 164 | Sc1nnc(-c2cccs2)o1
156 to 158 | O=C(c1ccccc1)c1ccc(OC(F)F)cc1
104 to 106 | Nc1nc(SCc2ccccc2)ns1
258 to 260 | NC(=S)c1ccnc(-n2cncn2)c1
47 to 49 | CCOC(=O)Cc1cccc(C#N)c1
166 to 168 | Nc1ccc(-c2nnc(O)o2)cc1
209 to 211 | Nc1ccc2c(N)n[nH]c2c1
56 to 58 | FC(F)(F)c1ccc(-n2nnnc2CCl)cc1
38 to 42 | ClCc1nc(-c2cccc(Cl)c2)no1
212 to 214 | O=C(CCl)NCC1COc2ccccc2O1 (stereo unspecified)
44 to 46 | Cc1cc(F)ccc1CO
206 to 208 | CN(Cc1ccccc1)c1nc2ccccc2[nH]1
122 to 124 | CCCOc1ccc(C(=O)O)cc1N
153 to 155 | O=C(O)c1c(F)cccc1Br
